In PubChem BioAssay AID1949 (Southern Research Institute, 2009):
Converted amounts (≈) assume the structure as drawn. Results filed as inconclusive are left out. The source made the active and inactive calls. No rule for the calls is given here.

Test system: M. tuberculosis H37Rv growth inhibition
Experiment: Mycobacterium tuberculosis H37Rv growth inhibition, cell based, confirmatory dose response (AID 1949);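 also: bacteria grown 7 days with compound before Alamar blue readout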

Compound	IC50
Clc1ccc(OCc2ccccc2Cl)c(CNCc2ccccc2)c1	5.09 µg/mL (≈ 13.7 µM)
O=C(Oc1ccc(F)cc1)c1sc2ccccc2c1Cl	3.07 µg/mL (≈ 10 µM)
N#CCCN(Cc1ccccc1)C(=S)NC(=O)c1ccccc1	2.51 µg/mL (≈ 7.76 µM)
OC(CN1CCN(C(c2ccccc2)c2ccccc2)CC1)Cn1c2ccccc2c2ccccc21 (centres undefined)	10.7 µg/mL (≈ 22.5 µM)
CCn1c2ccc(F)cc2c2nc3ccccc3nc21	6.92 µg/mL (≈ 26.1 µM)
O=C(CCNc1ccc(-c2ccccc2)cc1)c1ccco1	< 0.1 µg/mL
CCCC(=O)N1CCN(c2ccc(NC(=O)COc3ccc(C(C)CC)cc3)cc2Cl)CC1 (centres undefined)	11.3 µg/mL (≈ 24 µM)
CCOC(=O)c1c(NC(=O)CN2CCN(C)CC2)sc2c1CCC(C)C2 (centres undefined)	5.8 µg/mL (≈ 15.3 µM)
C=CS(=O)c1sc(Cl)c(N2CCOCC2)c1[N+](=O)[O-] (centres undefined)	5.77 µg/mL (≈ 17.9 µM)
Cc1ccc2nc(/C(C#N)=C\c3c[nH]c4ccc(Br)cc34)[nH]c2c1	0.62 µg/mL (≈ 1.64 µM)
Cc1ccc(O)c(C2=NNC(c3ccc(Cl)cc3)C2)c1 (centres undefined)	4.76 µg/mL (≈ 16.6 µM)
COc1ccccc1C(=O)NNC(=S)NC(=O)c1ccc(-c2ccccc2)cc1	< 0.1 µg/mL
CN(C)c1ccc(Nc2ncnc3ccc(Br)cc23)cc1	1.08 µg/mL (≈ 3.15 µM)
CCOC(=O)COc1ccc(Br)c(C=O)c1	5.47 µg/mL (≈ 19.1 µM)
C=CCn1c(-c2cccs2)nc2ccccc21	1.86 µg/mL (≈ 7.74 µM)
CSc1cccc(NC(=O)CSc2ccc(F)cc2)c1	2.86 µg/mL (≈ 9.3 µM)
COc1cc(NC(=O)C(Cl)Cl)c(OC)cc1Cl	2.68 µg/mL (≈ 8.98 µM)
COc1ccc(S(=O)(=O)Nc2cc(Sc3ccccc3)c(O)c3ccccc23)cc1	5.29 µg/mL (≈ 12.1 µM)
COc1ccc(CCNc2nc(-c3ccccn3)cs2)cc1OC	0.72 µg/mL (≈ 2.11 µM)
COC(=O)CSc1nnc(-c2ccc(C)cc2)o1	0.15 µg/mL (≈ 0.568 µM)

Compound	IC50
O=C(Nc1cccc(Br)c1)c1ccc(-c2ccc(Cl)cc2)o1	1.39 µg/mL (≈ 3.69 µM)
CCOc1ccc(NCCC(=O)c2cccs2)cc1	0.86 µg/mL (≈ 3.12 µM)
CCN(CC)c1ccc(-n2nc3cc(C)c(N)cc3n2)c(C)c1	13.1 µg/mL (≈ 42.3 µM)
CCOC(=O)c1ccc(NC(=S)Nc2ccc(Oc3ccccc3)cc2)cc1	0.39 µg/mL (≈ 0.994 µM)
O=C(NCc1cccs1)c1cc2n(n1)C(C(F)(F)F)CC(c1ccc3c(c1)OCO3)N2 (centres undefined)	1.5 µg/mL (≈ 3.33 µM)
O=[N+]([O-])c1ccc2nc(CSc3nc4ccccc4o3)[nH]c2c1	3.21 µg/mL (≈ 9.84 µM)
COc1ccc(N2CCN(c3ncnc4sc5c(c34)CCCC5)CC2)cc1	> 50 µg/mL (inactive)
COC(=O)c1sc(NC(=O)c2c(F)c(F)c(F)c(F)c2F)c(C(N)=O)c1C	< 0.1 µg/mL
O=C(CC1Sc2ccc(Cl)cc2NC1=O)Nc1ccc([N+](=O)[O-])cc1 (centres undefined)	2.53 µg/mL (≈ 6.7 µM)
O=[N+]([O-])c1ccc(-c2[nH]c(-c3cccc(F)c3)nc2-c2ccccc2)cc1	2.62 µg/mL (≈ 7.29 µM)
O=C(O)c1ccc(C2Nc3ccc([N+](=O)[O-])cc3C3c4ccccc4CC23)cc1 (centres undefined)	> 50 µg/mL (inactive)
NC(=O)CSc1nnc(SCc2ccc(F)cc2)s1	9.02 µg/mL (≈ 28.6 µM)
CCn1cc(C(=O)O)c(=O)c2cc(F)c(N3CCN(S(=O)(=O)c4ccc(NC(C)=O)cc4)CC3)cc21	36.6 µg/mL (≈ 70.8 µM)
O=[N+]([O-])c1nn(-c2ccccc2)[n+]([O-])c1N1CCCC1	11.9 µg/mL (≈ 43.1 µM)
COc1ccccc1Nc1nc(NCc2ccccc2)c2ccccc2n1	3.21 µg/mL (≈ 9.01 µM)
O=C(Nc1nc2c(s1)CCCC2)c1ccc(Br)s1	0.62 µg/mL (≈ 1.81 µM)
COc1ccccc1C1CC(=O)C2=C(C1)NC(C)=C(C(=O)OC1CCCC1)C2c1ccc(O)cc1 (centres undefined)	4.74 µg/mL (≈ 10 µM)
O=C(CSc1ccc(Cl)cc1)Nc1ccc(Br)cn1	3.02 µg/mL (≈ 8.44 µM)
O=C(Nc1ccc(Cl)c(C(F)(F)F)c1)C1CCN(C(=O)c2ccc(Br)cc2)CC1	7.21 µg/mL (≈ 14.7 µM)
N#CSc1ccc(NC(=O)CSc2nc3ccccc3[nH]2)cc1	6.24 µg/mL (≈ 18.3 µM)

Compound	IC50
O=C(CSc1ccccc1)c1ccc([N+](=O)[O-])cc1	9.78 µg/mL (≈ 35.8 µM)
C=CCn1c(O)c(C2=c3ccccc3=NC2=O)sc1=N	< 0.1 µg/mL
O=C(Nc1ccc2oc(-c3cccc4ccccc34)nc2c1)c1cncc(Br)c1	2.72 µg/mL (≈ 6.12 µM)
Cc1cc(OCCCCn2ccnc2)cc(C(C)C)c1	2.03 µg/mL (≈ 7.45 µM)
O=C(CCc1ccccc1)NC(=S)Nc1ccc(N2CCCCC2)cc1	0.27 µg/mL (≈ 0.735 µM)
CCOc1cc(CNCCO)cc(Br)c1OCc1ccc(Cl)cc1Cl	1.54 µg/mL (≈ 3.43 µM)
Cc1c(C(=O)NC(=S)Nc2ccc(Oc3ccc(Cl)cc3)cc2)cccc1[N+](=O)[O-]	1.49 µg/mL (≈ 3.37 µM)
CCc1cc2c(=O)c(Oc3ccc(-c4ccccc4)cc3)coc2cc1OC(C)=O	5.89 µg/mL (≈ 14.7 µM)
CCCc1cc2c(-c3ccccc3)cc(=O)oc2cc1OCC	> 50 µg/mL (inactive)
O=C(NC(=S)N1CCCC1)c1ccc(-c2ccccc2)cc1	1.43 µg/mL (≈ 4.61 µM)
CCn1c(-c2ccco2)nc2ccccc21	2.39 µg/mL (≈ 11.3 µM)
Cc1ccc(N2CCN(CC(O)COc3ccc4ccccc4c3)CC2)c(C)c1 (centres undefined)	9.31 µg/mL (≈ 23.8 µM)
Cc1nn(-c2nc3ccccc3[nH]2)c(N)c1-c1ccccc1	0.43 µg/mL (≈ 1.49 µM)
O=C(NC(=S)N1CCc2ccccc21)c1ccccc1	1.45 µg/mL (≈ 5.14 µM)
COc1ccc(OC)c(NC(=O)c2cc3cc(Br)ccc3oc2=O)c1	0.2 µg/mL (≈ 0.495 µM)
CCC(C)c1ccccc1OCCCNC1CCCC1 (centres undefined)	8.81 µg/mL (≈ 32 µM)
C/C(Cl)=C/Cc1c(C)[nH]c2ccccc2c1=O	16.6 µg/mL (≈ 67.2 µM)
CC(NC(=O)Nc1ccccc1O)(C(F)(F)F)C(F)(F)F	11.2 µg/mL (≈ 35.5 µM)
Cc1ccccc1C(=O)N1CCN(c2ccc(NC(=S)NC(=O)c3cccc(Cl)c3)cc2)CC1	> 50 µg/mL (inactive)
